{"source": "patent US12594268B2", "about": "“Methods of treating Fabry disease in patients having a mutation in the GLA gene” (Amicus Therapeutics, Inc., priority 2018, dated 2026)", "format_in_all_cases": "cell-based", "key": {"α-Gal A mutant form N34H": {"target": "T1, α-Gal A mutant form N34H (Homo sapiens, UniProt P06280, N34H)", "T1 construct": "expressed in transfected cells; host or cells: HEK-293", "T1 sequence (P06280 32-429 N34H)": "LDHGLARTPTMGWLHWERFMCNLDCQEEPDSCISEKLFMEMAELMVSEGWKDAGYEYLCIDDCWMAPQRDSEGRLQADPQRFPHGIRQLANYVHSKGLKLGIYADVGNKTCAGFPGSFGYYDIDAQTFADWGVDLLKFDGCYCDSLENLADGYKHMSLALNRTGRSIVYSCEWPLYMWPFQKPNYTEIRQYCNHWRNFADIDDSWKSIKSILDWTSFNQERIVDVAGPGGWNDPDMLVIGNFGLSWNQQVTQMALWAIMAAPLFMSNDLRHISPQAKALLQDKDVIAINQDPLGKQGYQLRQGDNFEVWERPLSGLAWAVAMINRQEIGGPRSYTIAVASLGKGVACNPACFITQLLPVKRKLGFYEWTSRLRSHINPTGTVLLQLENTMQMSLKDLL", "test": "α-Gal A activity in lysates of transfected HEK-293 cells, N34H", "description": "(§1) Baseline and 10 μM migalastat α-Gal A activity: Differences in the α-Gal A activity between lysates incubated in the absence and presence of 10 μM migalastat were determined using a one-tailed, Mann Whitney U test; an increase at 10 μM migalastat with a p<0.05 was considered significant.\n(§2) 10 μM migalastat α-Gal A activity (% WT)=(α-Gal A activity in mutant transfected cell lysates incubated with 10 μM migalastat÷α-Gal A activity in wild-type transfected cell lysates without migalastat)*100.\n(§3) Absolute increase (% WT)=is the 10 μM migalastat α-Gal A activity (% WT) minus the baseline α-Gal A activity (% WT).\n(§4) Relative increase is the 10 μM migalastat α-Gal A activity in mutant transfected cell lysates÷baseline α-Gal A activity in mutant transfected cell lysates incubated without migalastat."}, "[1]": {"target": "T2, α-Gal A mutant form P323T (Homo sapiens, UniProt P06280, P323T)", "T2 construct": "expressed in transfected cells; host or cells: HEK-293", "T2 sequence (P06280 32-429 P323T)": "T1 sequence (P06280 32-429 N34H) with H3N, P292T", "test": "α-Gal A activity in lysates of transfected HEK-293 cells, P323T", "description": "as §1, §2, §3, §4"}, "[2]": {"target": "T3, α-Gal A mutant form Y216S (Homo sapiens, UniProt P06280, Y216S)", "T3 construct": "expressed in transfected cells; host or cells: HEK-293", "T3 sequence (P06280 32-429 Y216S)": "T1 sequence (P06280 32-429 N34H) with H3N, Y185S", "test": "α-Gal A activity in lysates of transfected HEK-293 cells, Y216S", "description": "as §1, §2, §3, §4"}, "α-Gal A mutant form G80V": {"target": "T4, α-Gal A mutant form G80V (Homo sapiens, UniProt P06280, G80V)", "T4 construct": "expressed in transfected cells; host or cells: HEK-293", "T4 sequence (P06280 32-429 G80V)": "T1 sequence (P06280 32-429 N34H) with H3N, G49V", "test": "α-Gal A activity in lysates of transfected HEK-293 cells, G80V", "description": "as §1, §2, §3, §4"}, "[3]": {"target": "T5, α-Gal A mutant form R392T (Homo sapiens, UniProt P06280, R392T)", "T5 construct": "expressed in transfected cells; host or cells: HEK-293", "T5 sequence (P06280 32-429 R392T)": "T1 sequence (P06280 32-429 N34H) with H3N, R361T", "test": "α-Gal A activity in lysates of transfected HEK-293 cells, R392T", "description": "as §1, §2, §3, §4"}, "[4]": {"conditions": "HEK-293 lysates, 10 μM migalastat, 5 days, mean ± SEM"}, "[5]": {"conditions": "10 μM migalastat minus baseline"}, "[6]": {"conditions": "10 μM migalastat ÷ baseline activity"}, "[7]": {"conditions": "HEK-293 lysates, 10 nM migalastat as printed, 5 days, mean ± SEM"}}, "note": "Residue numbers refer to the chain shown, from its start."}
{"molecule": "OC[C@H]1NC[C@H](O)[C@@H](O)[C@H]1O", "note": "[migalastat, (2R,3S,4R,5S)-2-(hydroxymethyl) piperdine-3,4,5-triol]", "values": [{"measurement": "Absolute increase (% WT)", "setting": "α-Gal A mutant form N34H; 10 μM migalastat minus baseline (baseline BLD)", "result": 3.6, "unit": "% WT"}, {"measurement": "10 μM migalastat α-Gal A activity (% WT)", "setting": "α-Gal A mutant form N34H; [4]", "result": "3.6 ± 0.2", "unit": "% WT"}, {"measurement": "10 μM migalastat α-Gal A activity", "setting": "α-Gal A mutant form N34H; HEK-293 lysates, 10 μM migalastat, 5 days, mean ± SEM, baseline BLD", "result": "1414 ± 100", "unit": "nmol/mg/h"}, {"measurement": "Absolute increase (% WT)", "setting": "[1]; [5]", "result": 12.3, "unit": "% WT"}, {"measurement": "Relative increase", "setting": "[1]; [6]", "result": 1.21}, {"measurement": "10 μM migalastat α-Gal A activity", "setting": "[1]; [4]", "result": "29631 ± 1144", "unit": "nmol/mg/h"}, {"measurement": "10 μM migalastat α-Gal A activity (% WT)", "setting": "[1]; [4]", "result": "71.3 ± 4.1", "unit": "% WT"}, {"measurement": "Absolute increase (% WT)", "setting": "[2]; [5]", "result": 32.7, "unit": "% WT"}, {"measurement": "Relative increase", "setting": "[2]; [6]", "result": 17.70}, {"measurement": "10 nM migalastat α-Gal A activity", "setting": "[2]; [7]", "result": "11238 ± 751", "unit": "nmol/mg/h"}, {"measurement": "10 μM migalastat α-Gal A activity (% WT)", "setting": "[2]; [4]", "result": "34.7 ± 1.8", "unit": "% WT"}, {"measurement": "Absolute increase (% WT)", "setting": "α-Gal A mutant form G80V; [5]", "result": 4.3, "unit": "% WT"}, {"measurement": "Relative increase", "setting": "α-Gal A mutant form G80V; [6]", "result": 3.18}, {"measurement": "10 μM migalastat α-Gal A activity", "setting": "α-Gal A mutant form G80V; [4]", "result": "2434 ± 333", "unit": "nmol/mg/h"}, {"measurement": "10 μM migalastat α-Gal A activity (% WT)", "setting": "α-Gal A mutant form G80V; [4]", "result": "6.4 ± 0.6", "unit": "% WT"}, {"measurement": "Absolute increase (% WT)", "setting": "[3]; [5]", "result": 21.3, "unit": "% WT"}, {"measurement": "Relative increase", "setting": "[3]; [6]", "result": 1.22}, {"measurement": "10 nM migalastat α-Gal A activity", "setting": "[3]; [7]", "result": "36679 ± 1896", "unit": "nmol/mg/h"}, {"measurement": "10 μM migalastat α-Gal A activity (% WT)", "setting": "[3]; [4]", "result": "125.9 ± 6.2", "unit": "% WT"}]}
